The compounds below were run against T1, CDK2 (Homo sapiens, UniProt P24941) (assay: Phospho-RB measurement in OVCAR3 cells (HTRF phospho-RB cellular kit)). Conditions: inhibition of RB phosphorylation at S807/811 (HTRF), 24 h compound treatment.
T1 construct: endogenous in cells; host or cells: OVCAR3 cells
Type: cell-based
In short: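 IC50 came from a four-parameter logistic fit of the DMSO-normalized TR-FRET ratio (665/620 nm). That ratio reflects RB phosphorylation at S807/811, read with an HTRF antibody pair 4 h after adding lysate at room temperature.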

Row | IC50 [nM] | Compound
1 | > 10000 | CC(C)(C)c1nc(-c2cccc(NS(=O)(=O)N3CCn4cnnc4C3)c2F)c(-c2ccnc(NC3CCN(S(C)(=O)=O)CC3)n2)s1 [Example 90, N-(3-(2-(tert-butyl)-5-(2-((1-(methylsulfonyl)-piperidin-4-yl)amino)-pyrimidin-4-yl)thiazol-4-yl)~2~fluoro-phenyl)-5,6-dihydro-[1,2,4] triazolo-[4,3-a]pyrazine-7(8H)-sulfonamide]

Same assay, conditions: inhibition of RB phosphorylation at S807/811 (HTRF, TR-FRET ratio 665/620), 24 h compound treatment, 0.3 to 10,000 nM

Row | IC50 [nM] | Compound
2 | 4810 | CN1CCN(S(=O)(=O)Nc2cccc(-c3nc(C(C)(C)C)sc3-c3ccnc(NC4CCN(S(C)(=O)=O)CC4)n3)c2F)CC1=O [Example 89, N-(3-(2-(tert-butyl)-5-(2-((1-(methylsulfonyl)-piperidin-4-yl)amino)-pyrimidin-4-yl)thiazol-4-yl)-2-fluoro-phenyl)-4-methyl-3-oxopiperazine-1-sulfonamide]
3 | 117 | CC(C)(C)c1nc(-c2cccc(NS(=O)(=O)N3CCOc4ccccc4C3)c2F)c(-c2ccnc(NC3CCN(S(C)(=O)=O)CC3)n2)s1 [Example 91, N-(3-(2-(tert-butyl)-5-(2-((1-(methylsulfonyl)-piperidin-4-yl)amino)-pyrimidin-4-yl)thiazol-4-yl)-2-fluorophenyl)-2,3-dihydrobenzo [f][1,4]-oxazepine-4 (5H)-sulfonamide]
4 | 305 | CC(C)(C)c1nc(-c2cccc(NS(=O)(=O)N3CCc4cc(C#N)ccc43)c2F)c(-c2ccnc(NC3CCN(S(C)(=O)=O)CC3)n2)s1 [Example 92, N-(3-(2-(tert-butyl)-5-(2-((1-(methylsulfonyl)piperidin-4-yl)amino)-pyrimidin-4-yl)thiazol-4-yl)-2-fluorophenyl)-5-cyanoindoline-1-sulfonamide]
5 | 3030 | CC(C)(C)c1nc(-c2cccc(NS(=O)(=O)N3CCN(S(C)(=O)=O)CC3)c2F)c(-c2ccnc(NC3CCN(S(C)(=O)=O)CC3)n2)s1 [Example 93, N-(3-(2-(tert-butyl)-5-(2-((1-(methylsulfonyl)piperidin-4-yl)amino)-pyrimidin-4-yl)thiazol-4-yl)-2-fluorophenyl)-4-(methylsulfonyl)-piperazine-1-sulfonamide]
6 | 5940 | CC(C)(C)c1nc(-c2cccc(NS(=O)(=O)N3CCn4c(nnc4C(F)(F)F)C3)c2F)c(-c2ccnc(NC3CCN(S(C)(=O)=O)CC3)n2)s1 [Example 94, N-(3-(2-(tert-butyl)-5-(2-((1-(methylsulfonyl)-piperidin-4-yl)amino)-pyrimidin-4-yl)thiazol-4-yl)-2-fluoro-phenyl)-3-(trifluoromethyl)-5,6-dihydro-[1,2,4]triazolo [4,3-a]pyrazine-7(8H)-sulfonamide]
7 | 610 | CC(C)(C)c1nc(-c2cccc(NS(=O)(=O)N3Cc4cccnc4C3)c2F)c(-c2ccnc(NC3CCN(S(C)(=O)=O)CC3)n2)s1 [Example 95, N-(3-(2-(tert-butyl)-5-(2-((1-(methylsulfonyl)piperidin-4-yl)amino)-pyrimidin-4-yl)thiazol-4-yl)-2-fluoro-phenyl)-5,7-dihydro-6H-pyrrolo-[3,4-b]pyridine-6-sulfonamide]
8 | 454 | CN(C)S(=O)(=O)Nc1cccc(-c2nc(C(C)(C)C)sc2-c2ccnc(NC3CCN(S(=O)(=O)N4CCNCC4)CC3)n2)c1F [Example 96, N-(3-(2-(tert-butyl)-5-(2-((1-(piperazin-1-ylsulfonyl)piperidin-4-yl)amino)-pyrimidin-4-yl)thiazol-4-yl)-2-fluorophenyl) dimethylamine-sulfonamide]
9 | 285 | CC(C)(C)c1nc(-c2cccc(NS(=O)(=O)N3Cc4ccc(C#N)cc4C3)c2F)c(-c2ccnc(NC3CCN(S(C)(=O)=O)CC3)n2)s1 [Example 97, N-(3-(2-(tert-butyl)-5-(2-((1-(methylsulfonyl)piperidin-4-yl)amino)-pyrimidin-4-yl)thiazol-4-yl)-2-fluorophenyl)-5-cyanoisoindoline-2-sulfonamide]

Reference: patent US20260274833A1 (NiKang Therapeutics, Inc., priority 2022, published 2026)
